Source: PubChem BioAssay (NCI)
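1) Cells in 96-well plates. 2) Compound, 48 h, 5 concentrations. 3) Linear interpolation between surrounding doses. 4) Unreached endpoint = highest concentration. TGI: concentration producing complete growth inhibition.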

What was measured:
Assay in all cases: NCI tumour cell line growth inhibition, 48 h
MDA-MB-435 = test system: MDA-MB-435
IGROV1 ovarian = test system: IGROV1 ovarian
BT-549 breast = test system: BT-549 breast
HT29 colon = test system: HT29 colon
OVCAR-4 ovarian = test system: OVCAR-4 ovarian
HS 578T breast = test system: HS 578T breast
MALME-3M melanoma = test system: MALME-3M melanoma
OVCAR-8 ovarian = test system: OVCAR-8 ovarian
MDA-MB-231 breast = test system: MDA-MB-231 breast
NCI/ADR-RES ovarian = test system: NCI/ADR-RES ovarian
MDA-N = test system: MDA-N

| Structure (SMILES) | TGI (MDA-MB-435) | TGI (IGROV1 ovarian) [µM] | TGI (BT-549 breast) | TGI (HT29 colon) [µM] | TGI (OVCAR-4 ovarian) [µM] | TGI (HS 578T breast) [µM] | TGI (MALME-3M melanoma) [µM] | TGI (OVCAR-8 ovarian) [µM] | TGI (MDA-MB-231 breast) [µM] | TGI (NCI/ADR-RES ovarian) [µM] | TGI (MDA-N) [µM] |
| --- | --- | --- | --- | --- | --- | --- | --- | --- | --- | --- | --- |
| CC1=C(C)SC(=C2Sc3nc(O)[nH]c(=O)c3S2)S1 | > 100 µM | > 100 | > 100 µM | > 100 | > 100 | > 100 | 50.8 | > 100 | > 100 | > 100 |  |
| CCOc1ccc(N/C(=C(/C(Cl)=C(/Cl)NC(C)(C)C)[N+](=O)[O-])n2nnc3ccccc32)cc1 | 33.6 µM |  | 41.5 µM | > 100 | > 100 | 32.6 | 33.3 | 32.3 | 37.6 | > 100 |  |
| ON=C(CC(O)(C(F)(F)Cl)C(F)(F)Cl)CC(O)(C(F)(F)Cl)C(F)(F)Cl | > 10 µM | > 10 |  | > 10 | > 10 | > 10 | > 10 | > 10 |  | > 10 |  |
| COc1cccc(/C=C2\S/C(=N/Nc3nc(-c4ccc([N+](=O)[O-])cc4)cs3)NC2=O)c1O | 42.2 µM | 27.1 | 20 µM | 52.6 |  | 74.1 | 42.3 | 48.3 | 41.7 | 53.3 | 57.5 |
| O=c1oc2c(Cl)cc(Cl)cc2cc1C1=CSC2=NCCN12 | > 100 µM | > 100 | 74.4 µM | > 100 | > 100 |  |  | > 100 | > 100 | > 100 | > 100 |
| CSc1nc2c(c(=O)[nH]1)N=C(c1ccccc1)CC(c1ccccc1)N2 (configuration not stated) | > 100 µM | > 100 | > 100 µM | > 100 | 95.2 |  | 75.6 | > 100 | 45.5 | > 100 | 46.6 |
| CCOC(=O)C(Cl)(NC(=O)OCc1ccccc1)C(F)(F)F (configuration not stated) | > 100 µM | > 100 |  | > 100 | > 100 | > 100 | > 100 | > 100 | > 100 | > 100 | > 100 |
| CNC1(C(=O)O)CC1 | > 100 µM | > 100 |  | > 100 | > 100 | > 100 | > 100 | > 100 | > 100 | > 100 | > 100 |
| Cc1ccc(C(=O)N/N=C(\N=Nc2ccc(C(=O)O)cc2)c2ccc(N(CCC#N)CCC#N)cc2C)cc1 | > 100 µM |  | > 100 µM | > 100 | > 100 |  |  | > 100 | > 100 | > 100 | > 100 |
| Cc1ccc(Nc2nc3c(=O)n(C)c(=O)n(C)c3nc2Nc2ccc(C)cc2)cc1 | 25.1 µM | 29.8 |  | 23.4 | 23.9 | 79.6 | 28.6 | 26.8 | 27.1 | 35.1 | 24.2 |
| CC(=O)CC1=C(OC(C)C)C2(OCCO2)C1O (configuration not stated) | > 100 µM | > 100 | > 100 µM | > 100 | > 100 | > 100 | > 100 | > 100 | > 100 |  | > 100 |
| COc1cc2c(c(OC)c1OC)-c1ccc(SC)cc1C(O)CC2 (configuration not stated) | 17 µg/mL | > 100 | 41 µg/mL |  | > 100 |  | > 100 |  | > 100 |  | 0.461 |
| Cc1nc2sccn2c1/C=C1/C(=O)Nc2cccc(Cl)c21 | 39.3 µM | > 100 | > 100 µM | > 100 |  | > 100 | > 100 | > 100 | > 100 | > 100 | 38.1 |
| Cc1cnc2[nH]c(-c3ccc4ccccc4c3)cc(=O)c2c1 |  | > 100 | > 100 µM | > 100 | > 100 | > 100 |  | > 100 |  |  |  |
| Cc1ccc(N(C)S(=O)(=O)c2ccccc2[N+](=O)[O-])cc1 | > 100 µM |  | 61.7 µM | > 100 | > 100 |  | > 100 | > 100 | > 100 | > 100 | > 100 |
| O=C1CC(NCc2ccccc2)c2c(Cl)sc(Cl)c21 (configuration not stated) | 85.2 µM | > 64.6 | 69.8 µM | 74.5 | > 87.3 | > 82.5 | 44.4 | 48.5 | 66.4 | > 86.3 |  |
| CCCCCCCCC/C=C1\CCC(CN(C)C)C1=O (configuration not stated) |  | 6.53 |  | 3.16 |  |  | 12.6 | 3.11 |  |  |  |
| CCOC(=O)c1nc2ccc(C(F)(F)F)cc2nc1Oc1ccc(C(=O)OC)cc1 | > 100 µM | > 100 | > 100 µM | > 100 | > 100 | > 100 |  | > 100 | > 100 | > 100 |  |
| CCCCCCCCCCCCCCCCCCOCC(O)COP(=O)(O)OCC1OC(n2ccc(N)nc2=O)C(O)C1O (configuration not stated) | > 100 µM | 28.5 |  | 50.7 | > 100 | > 100 | > 100 | 24.3 | 64.7 | > 100 | > 100 |
| N#Cc1c(-c2ccccc2)c(CN2CCCCC2)c(=O)n2c1[nH]c1ccccc12 | > 100 µM | > 100 | > 100 µM |  | > 100 |  | > 100 | > 100 | > 100 | > 100 | > 100 |
| CC(=O)Nc1cccc(N=NN(C)C)c1 |  | > 100 |  | > 100 | > 100 |  | > 100 | > 100 |  | > 100 |  |
| COc1cccc(C2c3cc4c(cc3OC(Nc3ccccc3)C2C)OCO4)c1OC (configuration not stated) | > 100 µM | > 100 | > 100 µM | > 100 |  | 61.4 | > 100 | 33.1 | > 100 |  | > 100 |
| Cc1cccc(N/C(Sc2ccccc2)=C(/C(Cl)=C(Cl)Cl)[N+](=O)[O-])c1 | 34 µM |  | 41.8 µM | 43.1 | 38.6 |  | 30.2 | 29.6 | 53.9 | 39.1 | 45.8 |
